Results reported in US7138361B2, “Herbicidal heterocycles” (E. I. du Pont de Nemours and Company, priority 2000, dated 2006).

Key:
Type in all cases: in vivo
Sunflower [1] = experiment: Test C preemergence; conditions: scale 0 to 100, 0 no effect, 100 complete control
[2] = system: pigweed (Amaranthus retroflexus); experiment: Test B preemergence
Method in brief: (§1)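 Post-treatment, species sat 13–15 days under greenhouse conditions before visual scoring against controls, 0 (no effect) through 100 (complete control). Application preemergence to sown seeds or postemergence at 1- to 4-leaf stage, using a non-phytotoxic solvent/surfactant formulation.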

[3] = system: barnyardgrass (Echinochloa crus-galli); experiment: Test B preemergence
Method in brief: as §1

[4] = system: giant foxtail (Setaria faberii); experiment: Test B preemergence
Method in brief: as §1

[5] = system: velvetleaf (Abutilon theophrasti); experiment: Test B preemergence
Method in brief: as §1

[6] = system: Surinam grass (Brachiaria decumbens); experiment: Test B preemergence
Method in brief: as §1

[7] = system: cocklebur (Xanthium strumarium); experiment: Test B preemergence
Method in brief: as §1

corn (Zea mays) [8] = experiment: Test B preemergence
Method in brief: as §1

[9] = system: lambsquarters (Chenopodium album); experiment: Test B preemergence
Method in brief: as §1

[10] = system: morning glory (Ipomoea hederacea); experiment: Test B preemergence
Method in brief: as §1

[11] = system: crabgrass (Digitaria sanguinalis); experiment: Test B preemergence
Method in brief: as §1

rice (Oryza saliva) = experiment: Test B preemergence
Method in brief: as §1

[12] = system: pigweed (Amaranthus retroflexus); experiment: Test B postemergence; conditions: 13 to 15 days
Method in brief: as §1

[13] = system: barnyardgrass (Echinochloa crus-galli); experiment: Test B postemergence; conditions: 13 to 15 days
Method in brief: as §1

[14] = system: giant foxtail (Setaria faberii); experiment: Test B postemergence; conditions: 13 to 15 days
Method in brief: as §1

[15] = system: velvetleaf (Abutilon theophrasti); experiment: Test B postemergence; conditions: 13 to 15 days
Method in brief: as §1

[16] = system: Surinam grass (Brachiaria decumbens); experiment: Test B postemergence; conditions: 13 to 15 days
Method in brief: as §1

[17] = system: cocklebur (Xanthium strumarium); experiment: Test B postemergence; conditions: 13 to 15 days
Method in brief: as §1

corn (Zea mays) [18] = experiment: Test B postemergence; conditions: 13 to 15 days
Method in brief: as §1

[19] = system: wheat (Triticum aestivum); experiment: Test B postemergence; conditions: 13 to 15 days
Method in brief: as §1

[20] = system: lambsquarters (Chenopodium album); experiment: Test B postemergence; conditions: 13 to 15 days
Method in brief: as §1

wild oat (Avena fatua) = experiment: Test B postemergence; conditions: 13 to 15 days
Method in brief: as §1

[21] = system: blackgrass (Alopecurus myosuroides); experiment: Test B postemergence; conditions: 13 to 15 days
Method in brief: as §1

[22] = system: morning glory (Ipomoea hederacea); experiment: Test B postemergence; conditions: 13 to 15 days
Method in brief: as §1

[23] = system: crabgrass (Digitaria sanguinalis); experiment: Test B postemergence; conditions: 13 to 15 days
Method in brief: as §1

[24] = system: smallflower flatsedge (Cyperus difformis); experiment: Test C flooded paddy test; conditions: for Flatsedge plant response rating: Flooded Paddy, scale 0 to 100, 0 no effect, 100 complete control; for Plant response rating, Flatsedge: flooded paddy test, scale 0 to 100 (0 no effect, 100 complete control)
Method in brief: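 Greenhouse-maintained for 12 to 14 days after treatment, the paddy plants (2-leaf stage at application) were scored visually against controls. A score of 0 denotes no effect and a score of 100 denotes complete control.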

Sunflower [25] = experiment: Test C preemergence; conditions: Rate 500 g/ha, visual evaluation after 12 to 14 days
[26] = Preemergence, Rate 500 g/ha, scale 0 to 100, 0 no effect, 100 complete control
[27] = preemergence, Rate 125 g/ha, scale of 0 to 100 where 0 is no effect and 100 is complete control, 13 to 15 days
[28] = Rate 125 g/ha, scale 0 (no effect) to 100 (complete control)
[29] = Rate 500 g/ha, scale 0 to 100, 0 is no effect, 100 is complete control

CC1(c2ccn(C3SCN(c4cccc(C(F)(F)F)c4)C3=O)n2)CC1 (centres unmarked) [Compound 64]
Plant response rating, Sunflower (Sunflower [1]; Rate 125 g/ha): 20
Plant response rating, Sunflower (Sunflower [1]; Rate 250 g/ha): 50
Plant response rating, Pigweed [2, 26]: 100
Plant response rating, Pigweed [2, 27]: 100
Plant response rating, Barnyardgrass [3, 26]: 90
Plant response rating, Barnyardgrass [3, 27]: 50
Plant response rating, Foxtail, Giant [4, 26]: 90
Plant response rating, Foxtail, Giant [4, 27]: 0
Plant response rating, Velvetleaf [5, 26]: 0
Plant response rating, Velvetleaf [5, 27]: 0
Plant response rating, Surinam grass [6, 26]: 60
Plant response rating, Surinam grass [6, 27]: 30
Plant response rating, Cocklebur [7, 26]: 10
Plant response rating, Cocklebur [7, 27]: 0
Plant response rating, Corn (corn (Zea mays) [8]; [26]): 20
Plant response rating, Corn (corn (Zea mays) [8]; [27]): 0
Plant response rating, Lambsquarters [9, 26]: 100
Plant response rating, Lambsquarters [9, 27]: 100
Plant response rating, Morningglory [10, 26]: 10
Plant response rating, Morningglory [10, 27]: 0
Plant response rating, Crabgrass [11, 26]: 100
Plant response rating, Crabgrass [11, 27]: 40
Plant response rating, Rice (rice (Oryza saliva); [26]): 0
Plant response rating, Rice (rice (Oryza saliva); [27]): 0
Plant response rating, Pigweed [12, 28]: 40
Plant response rating, Pigweed [12, 29]: 70
Plant response rating, Barnyardgrass [13, 28]: 0
Plant response rating, Barnyardgrass [13, 29]: 50
Plant response rating, Foxtail, Giant [14, 28]: 0
Plant response rating, Foxtail, Giant [14, 29]: 30
Plant response rating, Velvetleaf [15, 28]: 0
Plant response rating, Velvetleaf [15, 29]: 30
Plant response rating, Surinam grass [16, 28]: 0
Plant response rating, Surinam grass [16, 29]: 40
Plant response rating, Cocklebur [17, 28]: 70
Plant response rating, Cocklebur [17, 29]: 70
Plant response rating, Corn (corn (Zea mays) [18]; [28]): 0
Plant response rating, Corn (corn (Zea mays) [18]; [29]): 20
Plant response rating, Wheat [19, 28]: 0
Plant response rating, Wheat [19, 29]: 0
Plant response rating, Lambsquarters [20, 28]: 70
Plant response rating, Lambsquarters [20, 29]: 80
Plant response rating, Wild Oat (wild oat (Avena fatua); [28]): 0
Plant response rating, Wild Oat (wild oat (Avena fatua); [29]): 0
Plant response rating, Blackgrass [21, 28]: 0
Plant response rating, Blackgrass [21, 29]: 0
Plant response rating, Morningglory [22, 28]: 0
Plant response rating, Morningglory [22, 29]: 60
Plant response rating, Crabgrass [23, 28]: 0
Plant response rating, Crabgrass [23, 29]: 50
Flatsedge plant response rating ([24]; Rate 250 g/ha): 100
Flatsedge plant response rating ([24]; Rate 500 g/ha): 100
Plant response rating, Flatsedge ([24]; Rate 62 g/ha): 100
Plant response rating, Flatsedge ([24]; Rate 125 g/ha): 100
Plant response rating (0 to 100), Sunflower (Sunflower [25]): 60

CCC(C)c1ccn(C2OCN(c3cccc(OC(F)(F)F)c3)C2=O)n1 (centres unmarked) [Compound 67]
Plant response rating, Sunflower (Sunflower [1]; Rate 125 g/ha): 0
Plant response rating, Sunflower (Sunflower [1]; Rate 250 g/ha): 0
Plant response rating, Pigweed [2, 26]: 100
Plant response rating, Pigweed [2, 27]: 100
Plant response rating, Barnyardgrass [3, 26]: 100
Plant response rating, Barnyardgrass [3, 27]: 60
Plant response rating, Foxtail, Giant [4, 26]: 40
Plant response rating, Foxtail, Giant [4, 27]: 40
Plant response rating, Velvetleaf [5, 26]: 0
Plant response rating, Velvetleaf [5, 27]: 0
Plant response rating, Surinam grass [6, 26]: 50
Plant response rating, Surinam grass [6, 27]: 20
Plant response rating, Cocklebur [7, 26]: 0
Plant response rating, Cocklebur [7, 27]: 0
Plant response rating, Corn (corn (Zea mays) [8]; [26]): 20
Plant response rating, Corn (corn (Zea mays) [8]; [27]): 0
Plant response rating, Lambsquarters [9, 26]: 100
Plant response rating, Lambsquarters [9, 27]: 100
Plant response rating, Morningglory [10, 26]: 0
Plant response rating, Morningglory [10, 27]: 0
Plant response rating, Crabgrass [11, 26]: 80
Plant response rating, Crabgrass [11, 27]: 20
Plant response rating, Rice (rice (Oryza saliva); [26]): 40
Plant response rating, Rice (rice (Oryza saliva); [27]): 40
Plant response rating, Pigweed [12, 28]: 0
Plant response rating, Pigweed [12, 29]: 0
Plant response rating, Barnyardgrass [13, 28]: 90
Plant response rating, Barnyardgrass [13, 29]: 100
Plant response rating, Foxtail, Giant [14, 28]: 20
Plant response rating, Foxtail, Giant [14, 29]: 40
Plant response rating, Velvetleaf [15, 28]: 0
Plant response rating, Velvetleaf [15, 29]: 20
Plant response rating, Surinam grass [16, 28]: 30
Plant response rating, Surinam grass [16, 29]: 30
Plant response rating, Cocklebur [17, 28]: 0
Plant response rating, Cocklebur [17, 29]: 60
Plant response rating, Corn (corn (Zea mays) [18]; [28]): 0
Plant response rating, Corn (corn (Zea mays) [18]; [29]): 0
Plant response rating, Wheat [19, 28]: 0
Plant response rating, Wheat [19, 29]: 0
Plant response rating, Lambsquarters [20, 28]: 90
Plant response rating, Lambsquarters [20, 29]: 100
Plant response rating, Wild Oat (wild oat (Avena fatua); [28]): 0
Plant response rating, Wild Oat (wild oat (Avena fatua); [29]): 0
Plant response rating, Blackgrass [21, 28]: 0
Plant response rating, Blackgrass [21, 29]: 0
Plant response rating, Morningglory [22, 28]: 0
Plant response rating, Morningglory [22, 29]: 0
Plant response rating, Crabgrass [23, 28]: 50
Plant response rating, Crabgrass [23, 29]: 100
Flatsedge plant response rating ([24]; Rate 250 g/ha): 100
Flatsedge plant response rating ([24]; Rate 500 g/ha): 100
Plant response rating, Flatsedge ([24]; Rate 62 g/ha): 100
Plant response rating, Flatsedge ([24]; Rate 125 g/ha): 100
Plant response rating (0 to 100), Sunflower (Sunflower [25]): 30
